Data from PubChem BioAssay AID1845215 (Molecular Pharmacology Branch, DTP, NCI, 2023).
pIC50: −log10 of the molar value. Several values for one entry are separate records, joined by “and”; a condition that tells them apart may be missing. Equal values may be shown once. Activity calls are given as the source filed them. The calls were made as follows: active = viability on the fitted dose curve at most 10% of control; inactive = the rest.

Tested on: SW 1271 complex tumor spheroid viability
Assay: Anticancer human tumor SW 1271 cell line growth inhibition;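 as to pIC50: spheroids exposed to agents for seven days before readout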;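 as to viability, T/C: spheroids exposed to agents for seven days before readout; percent of DMSO vehicle control luminescence so 100% = vehicle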
Details: for viability, T/C: stronger effect = lower value; for IC50: compound alone
Excerpt: Multicellular complex tumor spheroid response to DNA repair inhibitors in combination with DNA-damaging drugs
This study explores the anticancer activities of DNA-damaging drugs and inhibitors of DNA damage repair, both as single agents and in combinations. Complex tumor spheroids comprised of malignant cells, endothelial cells and mesenchymal stem cells served as an in vitro model for human solid tumors. This model system incorporates physiologically relevant features and patient-derived or established malignant cell lines with clinically relevant genetic alterations from many tumor types. Twenty-six patient-derived or established malignant cell lines were evaluated representing sarcoma, melanoma, small cell lung cancer (SCLC), non-small cell lung cancer (NSCLC), as well as bladder, ovarian and pancreatic cancers. The concentration ranges selected for each drug and investigational agent were based upon clinically achievable concentrations if the clinical Cmax of the agent was known.
Compounds. The drugs and compounds olaparib (NSC753686), talazoparib (NSC767125), berzosertib (NSC777718), elimusertib (NSC800525), nedisertib (NSC802822), VX-984 (NSC792969), AZD-1390 (NSC803789), temozolomide (NSC362856), topotecan (NSC609699), trabectedin (NSC813783), staurosporine (NSC755774), and gemcitabine (NSC613327) were obtained from the National Cancer Institute (NCI) Developmental Therapeutics Program Chemical Repository. The FDA-approved anticancer drug set is available from the Developmental Therapeutics Program at https://dtp.cancer.gov/organization/dscb/obtaining/available_plates.htm. […] The stock solutions were prepared in dimethyl sulfoxide (DMSO, Sigma-Aldrich, St. Louis, MO, cat. D2650) at 400-fold the tested concentration and stored at -70 degrees C. Prior to their use, the stock solutions were diluted in fresh medium and the final DMSO concentration in the assay was 0.25% (v/v). All drugs and investigational agents were tested over a range starting from a high concentration at or near the clinical Cmax and decreasing in half-log increments. If the clinical Cmax for an agent had not been determined, the highest concentration tested was 10 microM.
Cell Lines. The patient-derived cancer cell (PDC) lines: 156681-154-R-J1-PDC, 283228-195-R-J1-PDC, 287954-098-R-J1-PDC, 292921-168-R-J2-PDC, 349418-098-R-PDC, 425362-245-T-J1-PDC, 556581-035-R-J1-PDC, and BL0293-F563-PDC were received from the NCI Patient-Derived Models Repository (PDMR, https://pdmr.cancer.gov). The established cell lines HS-SY-2 (RRID:CVCL_8719), MPNST, and SYO-1 (RRID:CVCL_7146) were obtained from the Sloan Kettering Institute. The alveolar soft parts sarcoma cell line ASPS-1 (RRID:CVCL_S738) was established at the NCI and grown from internal seed stocks. The following established cell lines were purchased from the American Type Culture Collection (ATCC, Manassas, VA): G-401 (ATCC, cat. CRL-1441, RRID:CVCL_0270), SW982 (ATCC, cat. HTB-93, RRID:CVCL_1734), VA-ES-BJ (ATCC, cat. CRL-2138, RRID:CVCL_1785), NCI-H719 (ATCC, cat. CRL-5837, RRID:CVCL_1582), NCI-H196 (ATCC, cat. CRL-5823, RRID:CVCL_1509), NCI-H841 (ATCC, cat. CRL-5845, RRID:CVCL_1595), NCI-H1618 (ATCC, cat. CRL-5879, RRID:CVCL_1480), NCI-H1876 (ATCC, cat. CRL-5902, RRID:CVCL_1503), DMS 114 (ATCC, cat. CRL-2066; RRID:CVCL_1174), NCI-H211 (ATCC, cat. CRL-5824; RRID:CVCL_1529), and SW 1271 (ATCC, cat. CRL-2177, RRID:CVCL_1716). The small cell lung cancer cell line COR-L88 was purchased from Sigma-Aldrich (cat. 92031917-1VL, RRID:CVCL_1141). The non-small cell lung cancer cell lines NCI-H226 (RRID:CVCL_1544) and NCI-H322M (RRID:CVCL_1557) were established at the NCI and grown from internal seed stocks. Pooled donor human umbilical vein endothelial cells (HUVEC, Lonza, cat. CC-2519) and human mesenchymal stem cells (hMSC, Lonza, cat. PT-2501) were purchased from Lonza (Walkersville, MD).
Cell Culture. All cells were maintained in an incubator at 37 degrees C and 5% CO2 with 95% humidity. […]

[1] = curve of first compound, second compound 0.003 µM
[2] = second compound 0.003 µM, first compound 0.00949 µM
[3] = second compound 0.003 µM, first compound 0.03 µM
[4] = second compound 0.003 µM, first compound 0.0949 µM
[5] = second compound 0.003 µM, first compound 0.3 µM
[6] = second compound 0.003 µM, first compound 0.949 µM
[7] = second compound 0.003 µM, first compound 3 µM

Cn1ncnc1[C@H]1c2n[nH]c(=O)c3cc(F)cc(c23)N[C@@H]1c1ccc(F)cc1 + COc1cc2c(cc1O)CCNC21CSC2c3c(OC(C)=O)c(C)c4c(c3C(COC1=O)N1C(O)C3Cc5cc(C)c(OC)c(O)c5C(C21)N3C)OCO4
> 8.02: pIC50 (curve of first compound, second compound 94.9 pM) | pIC50 (curve of first compound, second compound 0.0003 µM) | pIC50 (curve of first compound, second compound 0.000949 µM) | pIC50 [1]
7.90: pIC50 (curve of first compound, second compound 30 pM)
inactive: viability, T/C (second compound 30 pM, first compound 0.00949 µM) 53.8% | viability, T/C (second compound 30 pM, first compound 0.03 µM) 38.3% | viability, T/C (second compound 30 pM, first compound 0.0949 µM) 30.2% | viability, T/C (second compound 30 pM, first compound 0.3 µM) 36.5% | viability, T/C (second compound 30 pM, first compound 0.949 µM) 32.9% | viability, T/C (second compound 30 pM, first compound 3 µM) 26.3% | viability, T/C (second compound 94.9 pM, first compound 0.00949 µM) 37.2% | viability, T/C (second compound 94.9 pM, first compound 0.03 µM) 33.5% | viability, T/C (second compound 94.9 pM, first compound 0.0949 µM) 32.7% | viability, T/C (second compound 94.9 pM, first compound 0.3 µM) 32.9% | viability, T/C (second compound 94.9 pM, first compound 0.949 µM) 34.7% | viability, T/C (second compound 94.9 pM, first compound 3 µM) 20.4% | viability, T/C (second compound 0.0003 µM, first compound 0.00949 µM) 34.7% | viability, T/C (second compound 0.0003 µM, first compound 0.03 µM) 35% | viability, T/C (second compound 0.0003 µM, first compound 0.0949 µM) 27.7% | viability, T/C (second compound 0.0003 µM, first compound 0.3 µM) 32.8% | viability, T/C (second compound 0.0003 µM, first compound 0.949 µM) 27.4% | viability, T/C (second compound 0.0003 µM, first compound 3 µM) 10.2%
active: viability, T/C (second compound 0.000949 µM, first compound 0.00949 µM) 8.93% | viability, T/C (second compound 0.000949 µM, first compound 0.03 µM) 4.22% | viability, T/C (second compound 0.000949 µM, first compound 0.0949 µM) 2.24% | viability, T/C (second compound 0.000949 µM, first compound 0.3 µM) 5.88% | viability, T/C (second compound 0.000949 µM, first compound 0.949 µM) 2.29% | viability, T/C (second compound 0.000949 µM, first compound 3 µM) 0.31% | viability, T/C [2] 0.1% | viability, T/C [3] 0.09% | viability, T/C [4] 0.09% | viability, T/C [5] 0.1% | viability, T/C [6] 0.09% | viability, T/C [7] 0.15%

CC[C@@]1(O)C(=O)OCc2c1cc1n(c2=O)Cc2cc3c(CN(C)C)c(O)ccc3nc2-1
11.7 nM [middle of 5 runs]: IC50 (run of 12/16/2019)
8.96 nM [middle of 5 runs]: IC50 (run of 11/07/2019)
inactive: viability, T/C (compound 0.003 µM) 88.3% [middle of 10 runs] | viability, T/C (compound 0.03 µM) 28.2% [middle of 10 runs] | viability, T/C (compound 0.0949 µM) 27.2% [middle of 10 runs] | viability, T/C (compound 0.3 µM) 16.7% [middle of 10 runs]

Cn1ncnc1[C@H]1c2n[nH]c(=O)c3cc(F)cc(c23)N[C@@H]1c1ccc(F)cc1 + CC[C@@]1(O)C(=O)OCc2c1cc1n(c2=O)Cc2cc3c(CN(C)C)c(O)ccc3nc2-1
active: viability, T/C (second compound 0.3 µM, first compound 0.3 µM) 9.66% | viability, T/C (second compound 0.3 µM, first compound 0.949 µM) 6.32% | viability, T/C (second compound 0.3 µM, first compound 3 µM) 3.75%
inactive: viability, T/C [2] 27.6% | viability, T/C [3] 23.9% | viability, T/C [4] 21.4% | viability, T/C [5] 24.1% | viability, T/C [6] 23.4% | viability, T/C [7] 21.7% | viability, T/C (second compound 0.00949 µM, first compound 0.00949 µM) 26.2% | viability, T/C (second compound 0.00949 µM, first compound 0.03 µM) 27.6% | viability, T/C (second compound 0.00949 µM, first compound 0.0949 µM) 28.4% | viability, T/C (second compound 0.00949 µM, first compound 0.3 µM) 25.9% | viability, T/C (second compound 0.00949 µM, first compound 0.949 µM) 26.7% | viability, T/C (second compound 0.00949 µM, first compound 3 µM) 17.2% | viability, T/C (second compound 0.03 µM, first compound 0.00949 µM) 27.7% | viability, T/C (second compound 0.03 µM, first compound 0.03 µM) 28.3% | viability, T/C (second compound 0.03 µM, first compound 0.0949 µM) 24.2% | viability, T/C (second compound 0.03 µM, first compound 0.3 µM) 25.2% | viability, T/C (second compound 0.03 µM, first compound 0.949 µM) 25% | viability, T/C (second compound 0.03 µM, first compound 3 µM) 18% | viability, T/C (second compound 0.0949 µM, first compound 0.00949 µM) 22.6% | viability, T/C (second compound 0.0949 µM, first compound 0.03 µM) 27.9% | viability, T/C (second compound 0.0949 µM, first compound 0.0949 µM) 28.1% | viability, T/C (second compound 0.0949 µM, first compound 0.3 µM) 23.7% | viability, T/C (second compound 0.0949 µM, first compound 0.949 µM) 22% | viability, T/C (second compound 0.0949 µM, first compound 3 µM) 11.3% | viability, T/C (second compound 0.3 µM, first compound 0.00949 µM) 11.1% | viability, T/C (second compound 0.3 µM, first compound 0.03 µM) 16.5% | viability, T/C (second compound 0.3 µM, first compound 0.0949 µM) 11.4%
> 8.02: pIC50 [1] | pIC50 (curve of first compound, second compound 0.00949 µM) | pIC50 (curve of first compound, second compound 0.03 µM) | pIC50 (curve of first compound, second compound 0.0949 µM) | pIC50 (curve of first compound, second compound 0.3 µM)

COc1ccc([C@@H](O)c2cc(-c3ncnc4cc(N5CCOCC5)ccc34)c(F)cc2Cl)nn1
5.58 and 5.75 and 5.60: pIC50 (curve of compound)
8.13% and 13.3% and 6.11%: viability, T/C (compound 10 µM)
inactive: viability, T/C (compound 0.0316 µM) 92.9% and 91.6% and 101% | viability, T/C (compound 0.1 µM) 93.1% and 83% and 92.6% | viability, T/C (compound 0.316 µM) 92.8% and 78.7% and 83.9% | outcome (compound 1 µM) | viability, T/C (compound 1 µM) 77.2% and 72.9% | viability, T/C (compound 3.16 µM) 44.9% and 38.3% and 44%
